Measurements from BindingDB's records for patent US11584735 (Kalvista Pharmaceuticals, 2023).

Molecular target: Serine protease 1 (Homo sapiens, UniProt P07477)
Test: Enzymatic Activity Assay
Experimental: Human serine protease enzymes plasmin, thrombin and trypsin were assayed for enzymatic activity using an appropriate fluorogenic substrate. Protease activity was measured by monitoring the accumulation of liberated fluorescence from the substrate over 5 minutes. The linear rate of fluorescence increase per minute was expressed as percentage (%) activity. The Km for the cleavage of each substrate was determined by standard transformation of the Michaelis-Menten equation.

Chain of Serine protease 1 (P07477 whole entry): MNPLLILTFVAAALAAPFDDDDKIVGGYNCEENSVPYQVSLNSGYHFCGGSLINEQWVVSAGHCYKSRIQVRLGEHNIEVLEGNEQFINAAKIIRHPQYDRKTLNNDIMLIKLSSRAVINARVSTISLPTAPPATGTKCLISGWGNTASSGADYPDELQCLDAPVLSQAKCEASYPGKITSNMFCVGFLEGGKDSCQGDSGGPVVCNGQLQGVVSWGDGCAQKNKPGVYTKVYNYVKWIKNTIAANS

Compound: COCc1nn(Cc2ccc(Cn3cc(F)ccc3=O)cc2)cc1C(=O)NCc1nccc(OC)c1F [US11584735, Compound of Formula A]
- IC50: > 40 µM
